Biological target: T1, microsomal prostaglandin E2 synthase-1 (mPGES-1) (Homo sapiens, UniProt O14684)
T1 sequence (O14684 1-152): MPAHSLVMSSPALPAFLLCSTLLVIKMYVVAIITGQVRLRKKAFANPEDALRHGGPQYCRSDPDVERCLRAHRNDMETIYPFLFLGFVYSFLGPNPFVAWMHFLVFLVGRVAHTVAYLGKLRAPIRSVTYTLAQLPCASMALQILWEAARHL
Assay: cell-free mPGES-1 activity assay in A549 microsomes, […] inhibition at […]
Type: cell-based
Conditions: A549, read-out: % inhibition at 10 μM

- inhibition at 10 µM: 74.5 ± 1.5%
Structure (SMILES): CC(C)c1ccc2c(c1)c(SC(C)(C)C)c(CC(C)(C)C(=O)O)n2Cc1ccc(Cl)cc1 [MK-886, 3-[1-(4-chlorobenzyl)-3-t-butylthio-5-isopropylindol-2-yl]-2,2-dimethylpropanoic acid]

Source: PMC3523389 (The Journal of pharmacology and experimental therapeutics, 2012)
